Here are results for one substance from patent US20230313217A1, “CHLOROPLAST TARGETING PEPTIDES AND CONJUGATES AND COMPOSITIONS THEREOF” (The Regents of the University of California, priority 2021, published 2023).

Data set [1] relates to chloroplasts in Arabidopsis leaves. In words: Confocal colocalization of nanomaterials with chloroplasts after foliar spray. The format is in vivo, Arabidopsis thaliana. Here is the method: In Vivo Imaging of Chloroplast Targeted Nanomaterials. Confocal fluorescence microscopy imaging was used to determine the colocalization between chloroplasts in Arabidopsis leaves and both targeted and nontargeted β-CDs and CY3-ds(GT)15 (SEQ ID NO: 6) DNA coated SWCNT (FIG. 3A,B). Nanomaterials were foliar sprayed on whole plants in a formulation containing 0.1% Silwet (v/v) (Table 1). Control confocal images of leaves treated with only 10 mM TES buffer have no background autofluorescence in CD and CY3-ds(GT)15 (SEQ ID NO: 6) DNA emission channels (FIG. 12). The level of colocalization of fluorescent emission from nanocarriers with chloroplasts was determined by Manders' coefficient analysis (COLOC2, ImageJ) (FIG. 3C). The localization of targeted nanomaterials (TP-β-CD and TP-CY3-ds(GT)15-SWCNT) with chloroplasts in leaf mesophyll cells was higher compared to nontargeted materials lacking the targeting peptide (β-CD and CY3-ds(GT)15-SWCNT). […] Previously, we reported an in vivo increase in colocalization of chloroplasts with heavy-metal-based quantum dots functionalized with chloroplast targeting biorecognition peptides,^16 indicating the robustness of this approach for a variety of targeted nanomaterials. […]
Confocal Fluorescence Microscopy. […]

In the next data set the test system is chloroplast DNA. As to conditions: in vivo.

Ends that are not written are not given here.

Experimental for chloroplast DNA: Chloroplasts were isolated from Arabidopsis leaves through a centrifugation gradient method in sucrose buffer.^1-3 Intact chloroplasts were isolated from leaves exposed to targeted and non-targeted CDs and pATV1-SWCNT, and buffer as control (10 mM TES pH 7.3) in 0.1% Silwet (v/v) for one day or five days. Following foliar spray with nanomaterials as explained above, 4 g of leaf tissue was collected from seven plants per treatment. Treated tissue was harvested, and ground in ice-cold 1× chilled sucrose buffer (pH 7.3, 28 mM Na2HPO4, 22 mM KH2PO4, 2.5 mM MgCl2, 400 mM sucrose, and 10 mM KCl). […]
DNA was extracted from plant leaf tissue and prepared using a Quick-DNA Plant/Seed DNA Miniprep kit (Zymo) in leaf samples treated with nanomaterials from one to five days. […] The DNA extraction was performed according to the manufacturer's instructions (zymoresearch.com) and concentrations were measured using a Nanodrop ND-1000 Spectrophotometer. […]
We determined the amount of oxidative DNA damage in plant leaves treated with nanomaterials for one day or five days using an enzyme-linked immunosorbent assay (ELISA) for 8-hydroxydeoxyguanosine (8-OHdG). The OxiSelect™ Oxidative DNA Damage ELISA Kit (Cat# STA-320, Cell Biolabs, inc.) quantifies the amount of 8-OHdG in isolated DNA samples from plant leaf tissue or isolated chloroplast suspensions. […]

In the case of “TP-β-CD: carbon dots with β-cyclodextrin molecular baskets covalently bonded to chloroplast targeting peptide MASSMLSSATMVGGC (SEQ ID NO:5) (also: covalently bonded to carbon dots with β-cyclodextrin, site not given here)”, the “colocalization rates of nanomaterials with chloroplasts” value in data set [1] (foliar spray, CD 20 mg/L, ds(GT)15-SWCNT 2 mg/L, Manders' coefficient, FIG. 3C) came to 70.0±9.46%. Also, the “delivery, % of chloroplasts in leaves” value in data set [1] (summary of Example 1) turned out to be 70%. For the same substance, the “oxidative damage to isolated chloroplast DNA” value in the data set with chloroplast DNA is reported as “not affected”.
